{
  "source": "patent US11793823B2",
  "about": "“Compounds and pharmaceutical uses thereof” (SyneuRx International (Taiwan) Corp., priority 2020, dated 2023)",
  "note": "Structures can show the parent of a compound that is named as a salt.",
  "data": [
    {"molecular_target": "human D-amino acid oxidase (hDAAO) (Homo sapiens (Human), UniProt P14920)", "sequence (P14920 whole entry)": "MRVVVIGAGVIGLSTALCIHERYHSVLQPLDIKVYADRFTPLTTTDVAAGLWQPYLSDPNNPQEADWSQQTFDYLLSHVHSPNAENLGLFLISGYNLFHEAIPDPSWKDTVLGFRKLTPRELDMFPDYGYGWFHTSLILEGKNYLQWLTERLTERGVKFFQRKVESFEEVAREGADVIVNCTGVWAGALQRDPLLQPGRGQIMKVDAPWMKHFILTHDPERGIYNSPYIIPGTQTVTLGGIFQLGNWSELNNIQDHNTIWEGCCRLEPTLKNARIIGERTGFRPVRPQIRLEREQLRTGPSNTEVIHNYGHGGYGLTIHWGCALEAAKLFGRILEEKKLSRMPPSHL", "experiment": "In vitro human D-amino acid oxidase (hDAAO) activity, D-Serine/Amplex Red fluorescence", "assay_type": "biochemical", "settings": "D-Serine substrate, 20 min", "experimental": "The hDAAO inhibitory activities were measured by using D-Serine as a substrate to produce H2O2. The produced H2O2 would be oxidized by peroxidase, and the produced free radicals would further react with Amplex Red reagent to emit fluorescence. The intensity of fluorescence at 590 nm would be measured to represent the activity of hDAAO. All compounds were dissolved in DMSO. Each compound was diluted with DMSO in 3-fold serial dilution to create a dose response curve. Each sample was added in triplicate, 1 µL/well, into 96-well black plates. Positive control wells were added with 1 μL of DMSO. Then 49 μL of assay buffer (100 mM Tris-HCl, pH 8.5) containing 1.2 ng/mL hDAAO, 900 nM FAD, 0.2 units/mL HRP, and 100 μM Amplex Red was added to each well of the plate using a multichannel pipette. Next, 50 μL of 100 mM D-Serine in assay buffer was added. The reaction plates were then incubated in the dark at room temperature. The fluorescence readout was detected at 0 and 20 mins by Molecular Device Gemini EM fluorescence reader using the following settings: excitation filter 530 nm, and emission filter 590 nm. The percentage of inhibition values for each well was calculated with the following equation: The percentage of inhibition=(fluorescence sample, 20 min−fluorescence sample, 0 min)/(fluorescence DMSO, 20 min−fluorescence DMSO, 0 min)×100%\nThe nonlinear curve fitting model in GraphPad Prism was used to calculate IC50 value for each compound.", "units": {"IC50": "nM"}, "values": [
      {"smiles": "O=C(Oc1cccnc1)c1cc(O)c(O)c(OC(=O)c2cc(O)c(O)c(OC(=O)c3cc(O)c(O)c(OC(=O)c4cc(O)c(O)c(OC(=O)c5cc(O)c(O)c(O)c5)c4)c3)c2)c1", "note": "[Compound 94, 5-((5-((5-((2,3-dihydroxy-5-((pyridin-3-yloxy)carbonyl)phenoxy)carbonyl)-2,3-dihydroxyphenoxy)carbonyl)-2,3-dihydroxyphenoxy)carbonyl)-2,3-dihydroxyphenyl 3,4,5-trihydroxybenzoate hydrochloride salt]", "IC50": 42},
      {"smiles": "O=C(Oc1cc(OC(=O)c2cc(O)c(O)c(OC(=O)c3cc(O)c(O)c(OC(=O)c4cc(O)c(O)c(OC(=O)c5cc(O)c(O)c(OC(=O)c6cc(O)c(O)c(O)c6)c5)c4)c3)c2)cc(OC(=O)c2cc(CCc3ccc(C(F)(F)F)cc3)n[nH]2)c1)c1cc(O)c(O)c(OC(=O)c2cc(O)c(O)c(OC(=O)c3cc(O)c(O)c(OC(=O)c4cc(O)c(O)c(OC(=O)c5cc(O)c(O)c(O)c5)c4)c3)c2)c1", "note": "[Compound 107, 5-((3-(4-(trifluoromethyl)phenethyl)-1H-pyrazole-5-carbonyl)oxy)-1,3-phenylene bis(3-((3-((3-((3,4-dihydroxy-5-((3,4,5-trihydroxybenzoyl)oxy)benzoyl)oxy)-4,5-dihydroxybenzoyl)oxy)-4,5-dihydroxybenzoyl)oxy)-4,5-dihydroxybenzoate)]", "IC50": 7},
      {"smiles": "O=C(Oc1cc(C(=O)Oc2cc(C(=O)O[C@H]3OC[C@@H](OC(=O)c4cc(O)c(O)c(OC(=O)c5cc(O)c(O)c(OC(=O)c6cc(O)c(O)c(O)c6)c5)c4)[C@H](OC(=O)c4cc(O)c(O)c(OC(=O)c5cc(O)c(O)c(OC(=O)c6cc(O)c(O)c(O)c6)c5)c4)[C@H]3OC(=O)c3cc(O)c(O)c(OC(=O)c4cc(O)c(O)c(OC(=O)c5cc(O)c(O)c(O)c5)c4)c3)cc(O)c2O)cc(O)c1O)c1cc(O)c(O)c(O)c1", "note": "[Compound 119, (2R,3R,4S,5R)-tetrahydro-2H-pyran-2,3,4,5-tetrayl tetrakis(3-((3,4-dihydroxy-5-((3,4,5-trihydroxybenzoyl)oxy)benzoyl)oxy)-4,5-dihydroxybenzoate)]", "IC50": 5},
      {"smiles": "O=C(OC[C@H]1O[C@H](OC(=O)c2cc(O)c(O)c(OC(=O)c3cc(O)c(O)c(OC(=O)c4cc(O)c(O)c(O)c4)c3)c2)[C@H](OC(=O)c2cc(O)c(O)c(OC(=O)c3cc(O)c(O)c(OC(=O)c4cc(O)c(O)c(O)c4)c3)c2)[C@@H]1OC(=O)c1cc(O)c(O)c(OC(=O)c2cc(O)c(O)c(OC(=O)c3cc(O)c(O)c(O)c3)c2)c1)c1cc(O)c(O)c(OC(=O)c2cc(O)c(O)c(OC(=O)c3cc(O)c(O)c(O)c3)c2)c1", "note": "[Compound 136, (2R,3R,4R,5R)-5-(((3-((3,4-dihydroxy-5-((3,4,5-trihydroxybenzoyl)oxy)benzoyl)oxy)-4,5-dihydroxybenzoyl)oxy)methyl)tetrahydrofuran-2,3,4-triyl tris(3-((3,4-dihydroxy-5-((3,4,5-trihydroxybenzoyl)oxy)benzoyl)oxy)-4,5-dihydroxybenzoate)]", "IC50": 6},
      {"smiles": "O=C(Oc1cc(C(=O)Oc2cc(C(=O)Oc3cc(C(=O)O[C@@H]4OC[C@@H](OC(=O)c5cc(O)c(O)c(OC(=O)c6cc(O)c(O)c(OC(=O)c7cc(O)c(O)c(OC(=O)c8cc(O)c(O)c(O)c8)c7)c6)c5)[C@H](OC(=O)c5cc(O)c(O)c(OC(=O)c6cc(O)c(O)c(OC(=O)c7cc(O)c(O)c(OC(=O)c8cc(O)c(O)c(O)c8)c7)c6)c5)[C@H]4OC(=O)c4cc(O)c(O)c(OC(=O)c5cc(O)c(O)c(OC(=O)c6cc(O)c(O)c(OC(=O)c7cc(O)c(O)c(O)c7)c6)c5)c4)cc(O)c3O)cc(O)c2O)cc(O)c1O)c1cc(O)c(O)c(O)c1", "note": "[Compound 128, (2S,3R,4S,5R)-tetrahydro-2H-pyran-2,3,4,5-tetrayl tetrakis(3-((3-((3,4-dihydroxy-5-((3,4,5-trihydroxybenzoyl)oxy)benzoyl)oxy)-4,5-dihydroxybenzoyl)oxy)-4,5-dihydroxybenzoate)]", "IC50": 3.3},
      {"smiles": "O=C(Oc1cc(C(=O)Oc2cc(C(=O)Oc3cc(C(=O)Oc4cc(C(=O)OC5CCCCCC5)cc(O)c4O)cc(O)c3O)cc(O)c2O)cc(O)c1O)c1cc(O)c(O)c(O)c1", "note": "[Compound 100, cycloheptyl 3-((3-((3-((3,4-dihydroxy-5-((3,4,5-trihydroxybenzoyl)oxy)benzoyl)oxy)-4,5-dihydroxybenzoyl)oxy)-4,5-dihydroxybenzoyl)oxy)-4,5-dihydroxybenzoate]", "IC50": 19},
      {"smiles": "O=C(OC[C@H]1O[C@@H](OC(=O)c2cc(O)c(O)c(OC(=O)c3cc(O)c(O)c(OC(=O)c4cc(O)c(O)c(OC(=O)c5cc(O)c(O)c(O)c5)c4)c3)c2)[C@H](OC(=O)c2cc(O)c(O)c(OC(=O)c3cc(O)c(O)c(OC(=O)c4cc(O)c(O)c(OC(=O)c5cc(O)c(O)c(O)c5)c4)c3)c2)[C@@H]1OC(=O)c1cc(O)c(O)c(OC(=O)c2cc(O)c(O)c(OC(=O)c3cc(O)c(O)c(OC(=O)c4cc(O)c(O)c(O)c4)c3)c2)c1)c1cc(O)c(O)c(OC(=O)c2cc(O)c(O)c(OC(=O)c3cc(O)c(O)c(OC(=O)c4cc(O)c(O)c(O)c4)c3)c2)c1", "note": "[Compound 146, (2S,3R,4R,5R)-5-(((3-((3-((3,4-dihydroxy-5-((3,4,5-trihydroxybenzoyl)oxy)benzoyl)oxy)-4,5-dihydroxybenzoyl)oxy)-4,5-dihydroxybenzoyl)oxy)methyl)tetrahydrofuran-2,3,4-triyl tris(3-((3-((3,4-dihydroxy-5-((3,4,5-trihydroxybenzoyl)oxy)benzoyl)oxy)-4,5-dihydroxybenzoyl)oxy)-4,5-dihydroxybenzoate)]", "IC50": 4},
      {"smiles": "O=C(Oc1cc(C(=O)Oc2cc(C(=O)Oc3cc(C(=O)Oc4cc(C(=O)OC5CCCCC5)cc(O)c4O)cc(O)c3O)cc(O)c2O)cc(O)c1O)c1cc(O)c(O)c(O)c1", "note": "[Compound 96, Cyclohexyl 3-((3-((3-((3,4-dihydroxy-5-((3,4,5-trihydroxybenzoyl)oxy)benzoyl)oxy)-4,5-dihydroxybenzoyl)oxy)-4,5-dihydroxybenzoyl)oxy)-4,5-dihydroxybenzoate]", "IC50": 26},
      {"smiles": "O=C(Oc1cc(C(=O)O[C@H]2OC[C@@H](OC(=O)c3cc(O)c(O)c(OC(=O)c4cc(O)c(O)c(O)c4)c3)[C@H](OC(=O)c3cc(O)c(O)c(OC(=O)c4cc(O)c(O)c(O)c4)c3)[C@H]2OC(=O)c2cc(O)c(O)c(OC(=O)c3cc(O)c(O)c(O)c3)c2)cc(O)c1O)c1cc(O)c(O)c(O)c1", "note": "[Compound 117, (2R,3R,4S,5R)-tetrahydro-2H-pyran-2,3,4,5-tetrayl tetrakis(3,4-dihydroxy-5-((3,4,5-trihydroxybenzoyl)oxy)benzoate)]", "IC50": 9},
      {"smiles": "O=C(Oc1cc(C(=O)Oc2cc(C(=O)Oc3cc(C(=O)Oc4cc(C(=O)O[C@H]5OC[C@@H](OC(=O)c6cc(O)c(O)c(OC(=O)c7cc(O)c(O)c(OC(=O)c8cc(O)c(O)c(OC(=O)c9cc(O)c(O)c(OC(=O)c%10cc(O)c(O)c(O)c%10)c9)c8)c7)c6)[C@H](OC(=O)c6cc(O)c(O)c(OC(=O)c7cc(O)c(O)c(OC(=O)c8cc(O)c(O)c(OC(=O)c9cc(O)c(O)c(OC(=O)c%10cc(O)c(O)c(O)c%10)c9)c8)c7)c6)[C@H]5OC(=O)c5cc(O)c(O)c(OC(=O)c6cc(O)c(O)c(OC(=O)c7cc(O)c(O)c(OC(=O)c8cc(O)c(O)c(OC(=O)c9cc(O)c(O)c(O)c9)c8)c7)c6)c5)cc(O)c4O)cc(O)c3O)cc(O)c2O)cc(O)c1O)c1cc(O)c(O)c(O)c1", "note": "[Compound 123, (2R,3R,4S,5R)-tetrahydro-2H-pyran-2,3,4,5-tetrayl tetrakis(3-((3-((3-((3,4-dihydroxy-5-((3,4,5-trihydroxybenzoyl)oxy)benzoyl)oxy)-4,5-dihydroxybenzoyl)oxy)-4,5-dihydroxybenzoyl)oxy)-4,5-dihydroxybenzoate)]", "IC50": 2.4},
      {"smiles": "O=C(Oc1cc(C(=O)Oc2cc(C(=O)Oc3cc(C(=O)Oc4cc(C(=O)OC5CC5)cc(O)c4O)cc(O)c3O)cc(O)c2O)cc(O)c1O)c1cc(O)c(O)c(O)c1", "note": "[Compound 98, 5-((5-((5-((5-(cyclopropoxycarbonyl)-2,3-dihydroxyphenoxy)carbonyl)-2,3-dihydroxyphenoxy)carbonyl)-2,3-dihydroxyphenoxy)carbonyl)-2,3-dihydroxyphenyl 3,4,5-trihydroxybenzoate]", "IC50": 33},
      {"smiles": "O=C(OC[C@H]1O[C@H](OC(=O)c2cc(O)c(O)c(OC(=O)c3cc(O)c(O)c(O)c3)c2)[C@H](OC(=O)c2cc(O)c(O)c(OC(=O)c3cc(O)c(O)c(O)c3)c2)[C@@H]1OC(=O)c1cc(O)c(O)c(OC(=O)c2cc(O)c(O)c(O)c2)c1)c1cc(O)c(O)c(OC(=O)c2cc(O)c(O)c(O)c2)c1", "note": "[Compound 134, (2R,3R,4R,5R)-5-(((3,4-dihydroxy-5-((3,4,5-trihydroxybenzoyl)oxy)benzoyl)oxy)methyl)tetrahydrofuran-2,3,4-triyl tris(3,4-dihydroxy-5-((3,4,5-trihydroxybenzoyl)oxy)benzoate)]", "IC50": 8},
      {"smiles": "O=C(O)c1cc(O)c(O)c(OC(=O)c2cc(O)c(O)c(OC(=O)c3cc(O)c(O)c(OC(=O)c4cc(O)c(O)c(OC(=O)c5cc(O)c(O)c(OC(=O)c6cc(CCc7cc(F)cc(F)c7)n[nH]6)c5)c4)c3)c2)c1", "note": "[Compound 58, 3-((3-((3-((3-((3-((3-(3,5-difluorophenethyl)-1H-pyrazole-5-carbonyl)oxy)-4,5-dihydroxybenzoyl)oxy)-4,5-dihydroxybenzoyl)oxy)-4,5-dihydroxybenzoyl)oxy)-4,5-dihydroxybenzoyl)oxy)-4,5-dihydroxybenzoic acid]", "IC50": 33}
    ]}
  ]
}
